Publication PMC8399443, “Synthesis, Biological Evaluation, and In Silico Modeling of N-Substituted Quinoxaline-2-Carboxamides” (Pharmaceuticals, 2021)
“And” between values parts separate entries of the source, which are not always exact repeats. Equal values may be shown once. Read-outs that look alike come from different tables or passages of the source.

Experiments:
Mtb H37Ra [1] = details: cited from earlier work
HepG2 cell line = test: In vitro cytotoxicity, CellTiter 96 (MTS); format: cell-based; details: Homo sapiens, read-out: HepG2 IC50
M. aurum = test: In vitro antimycobacterial activity, MABA; format: cell-based, Mycobacterium aurum; details: Mycolicibacterium aurum; MABA; read-out: MIC M. aurum
M. smegmatis = test: In vitro antimycobacterial activity, MABA; format: cell-based, Mycobacterium smegmatis; details: Mycolicibacterium smegmatis; MABA; read-out: MIC M. smeg
Mtb H37Ra [2] = test: In vitro antimycobacterial activity, Microplate Alamar Blue Assay (MABA); format: cell-based, Mycobacterium tuberculosis; details: Mycobacterium tuberculosis, H37RA, read-out: MIC Mtb H37Ra
A. fumigatus = test: In vitro antifungal activity, microdilution broth (EUCAST); format: cell-based; details: Aspergillus fumigatus
C. albicans = test: as above; format: cell-based; details: Candida albicans
T. interdigitale = test: as above; format: cell-based; details: Trichophyton interdigitale
A. flavus = test: as above; format: cell-based; details: Aspergillus flavus
C. tropicalis = test: as above; format: cell-based; details: Candida tropicalis
C. parapsilosis = test: as above; format: cell-based, Candida parapsilosis; details: Lodderomyces parapsilosis
L. corymbifera = test: as above; format: cell-based; details: Lichtheimia corymbifera
C. krusei = test: as above; format: cell-based, Candida krusei; details: Pichia kudriavzevii
S. epidermidis = test: In vitro antibacterial activity, microdilution broth (EUCAST); format: cell-based; details: Staphylococcus epidermidis
[3] = tested on: human ovarian cancer SK-OV-3 cell line; test: In vitro cytotoxicity; format: cell-based; details: SK-OV-3, 24 h, read-out: Cytotoxicity IC50 SK-OV-3
K. pneumoniae = test: In vitro antibacterial activity, microdilution broth (EUCAST); format: cell-based; details: Klebsiella pneumoniae
[4] = tested on: human glioblastoma U-87 MG cell line; test: In vitro cytotoxicity; format: cell-based; details: 24 h, read-out: Cytotoxicity IC50 U-87 MG
S. aureus = test: In vitro antibacterial activity, microdilution broth (EUCAST); format: cell-based; details: Staphylococcus aureus
E. faecalis = test: as above; format: cell-based; details: Enterococcus faecalis
[5] = In vitro cytotoxicity, non-cancerous cells; format: cell-based; details: human, HK-2 kidney cortex proximal tubule cells (non-cancerous); 24 hours incubation
S. marcescens = test: In vitro antibacterial activity, microdilution broth (EUCAST); format: cell-based; details: Serratia marcescens
P. aeruginosa = test: as above; format: cell-based; details: Pseudomonas aeruginosa
E. coli = test: as above; format: cell-based; details: Escherichia coli
[6] = tested on: human epithelial kidney cancer A498 cell line; test: In vitro cytotoxicity; format: cell-based; details: A498, 24 h, read-out: Cytotoxicity IC50 A498
MRSA = test: In vitro antibacterial activity, microdilution broth (EUCAST); format: cell-based, Staphylococcus aureus methicillin resistant; details: Staphylococcus aureus
[7] = tested on: human prostate cancer PC-3 cell line; test: In vitro cytotoxicity; format: cell-based; details: PC-3, 24 h, read-out: Cytotoxicity IC50 PC-3
[8] = 48 h, standards, read-out: MIC Aspergillus fumigatus
[9] = 48 h, standards, read-out: MIC Candida albicans
[10] = 72 h, standards, read-out: MIC Trichophyton interdigitale
[11] = 48 h, standards, read-out: MIC Aspergillus flavus
[12] = 48 h, standards, read-out: MIC Lichtheimia corymbifera

Question: With NC(=O)c1cnccn1 [PZA, pyrazinamide, reference compound] as the compound, how does the “MIC for Mtb H37Ra” value (Mtb H37Ra [1]; acidic pH, Figure 2) read?
Answer: < 3.91 µg/mL

Question: What about the “MIC for Mtb H37Ra” value (Mtb H37Ra [1]; neutral pH, Figure 2) of the same compound?
Answer: > 500 µg/mL

Question: And the IC50 (HepG2 cell line; HepG2, 24 h)?
Answer: > 1000 µM

Question: And the MIC (M. aurum)?
Answer: ≥ 500 µg/mL

Question: What about the MIC (M. smegmatis) of the same compound?
Answer: ≥ 500 µg/mL

Question: What about the MIC (Mtb H37Ra [2]) of the same compound?
Answer: ≥ 500 µg/mL and ≥ 4060 µM

Question: For CC(=O)Oc1ccc(COC(=O)c2cnc3ccccc3n2)cc1 [4-acetoxybenzyl quinoxaline-2-carboxylate], which “MIC for Mtb H37Ra” value (Mtb H37Ra [1]; Figure 2b) is on record?
Answer: 0.5 µg/mL

Question: Which MIC (A. fumigatus; [8]) does the source give for C[C@@H](c1ncncc1F)[C@](O)(Cn1cncn1)c1ccc(F)cc1F [voriconazole] here?
Answer: 1 µg/mL

Question: What about the MIC (C. albicans; [9]) of the same compound?
Answer: > 16 µg/mL

Question: What about the MIC (T. interdigitale; [10]) of the same compound?
Answer: > 16 µg/mL

Question: And the MIC (A. flavus; [11])?
Answer: > 16 µg/mL

Question: And the MIC (C. tropicalis; 48 h, standards)?
Answer: > 16 µg/mL

Question: What about the MIC (C. parapsilosis; 48 h, standards) of the same compound?
Answer: 8 µg/mL

Question: And the MIC (L. corymbifera; [12])?
Answer: > 16 µg/mL

Question: What about the MIC (C. krusei; 48 h, standards) of the same compound?
Answer: 0.5 µg/mL

Question: With O=C(NCc1cccc2ccccc12)c1cnc2ccccc2n1 [Compound 29, N-(naphthalen-1-ylmethyl)quinoxaline-2-carboxamide] as the compound, how does the MIC (A. fumigatus; read-out: MIC A. fumigatus) read?
Answer: ≥ 500 µM

Question: And the MIC (S. epidermidis; read-out: MIC S. epidermidis)?
Answer: ≥ 500 µM

Question: And the IC50 [3]?
Answer: 49.6 µM

Question: And the MIC (C. albicans; read-out: MIC C. albicans)?
Answer: ≥ 500 µM

Question: And the MIC (T. interdigitale; read-out: MIC T. interdigitale)?
Answer: ≥ 500 µM

Question: What about the MIC (K. pneumoniae; read-out: MIC K. pneumoniae) of the same compound?
Answer: ≥ 500 µM

Question: What about the IC50 [4] of the same compound?
Answer: > 250 µM

Question: And the MIC (A. flavus; read-out: MIC A. flavus)?
Answer: ≥ 500 µM

Question: What about the MIC (C. tropicalis) of the same compound?
Answer: ≥ 500 µM

Question: What about the MIC (C. parapsilosis) of the same compound?
Answer: ≥ 500 µM

Question: And the MIC (S. aureus; read-out: MIC S. aureus)?
Answer: ≥ 500 µM

Question: And the MIC (E. faecalis; read-out: MIC E. faecalis)?
Answer: ≥ 500 µM

Question: What about the MIC (L. corymbifera; read-out: MIC L. corymbifera) of the same compound?
Answer: ≥ 500 µM

Question: And the IC50 at 24 h [5]?
Answer: > 250 µM

Question: What about the IC50 (HepG2 cell line; HepG2, cytotoxicity, 24 h incubation, CellTiter 96) of the same compound?
Answer: 37.3 µM

Question: What about the MIC (M. aurum) of the same compound?
Answer: ≥ 125 µg/mL and ≥ 399 µM

Question: And the MIC (C. krusei)?
Answer: ≥ 500 µM

Question: And the MIC (S. marcescens; read-out: MIC S. marcescens)?
Answer: ≥ 500 µM

Question: And the MIC (P. aeruginosa; read-out: MIC P. aeruginosa)?
Answer: ≥ 500 µM

Question: And the MIC (M. smegmatis)?
Answer: ≥ 125 µg/mL and ≥ 399 µM

Question: What about the MIC (E. coli; read-out: MIC E. coli) of the same compound?
Answer: ≥ 500 µM

Question: And the IC50 [6]?
Answer: > 250 µM

Question: And the MIC (MRSA; read-out: MIC MRSA)?
Answer: ≥ 500 µM

Question: What about the IC50 [7] of the same compound?
Answer: 68.5 µM

Question: What about the MIC (Mtb H37Ra [2]) of the same compound?
Answer: ≥ 250 µg/mL and ≥ 798 µM

Question: With C[C@@H]1[C@H](O)[C@@H](C)/C=C/C=C/C=C/C=C/C=C/C=C/C=C/[C@H](O[C@@H]2O[C@H](C)[C@@H](O)[C@H](N)[C@@H]2O)C[C@@H]2O[C@](O)(C[C@@H](O)C[C@@H](O)[C@H](O)CC[C@@H](O)C[C@@H](O)CC(=O)O[C@H]1C)C[C@H](O)[C@H]2C(=O)O [amphotericin B] as the compound, how does the MIC (A. fumigatus; [8]) read?
Answer: 1 µg/mL

Question: And the MIC (C. albicans; [9])?
Answer: 0.5 µg/mL

Question: And the MIC (T. interdigitale; [10])?
Answer: 2 µg/mL

Question: What about the MIC (A. flavus; [11]) of the same compound?
Answer: 8 µg/mL

Question: What about the MIC (C. tropicalis; 48 h, standards) of the same compound?
Answer: 1 µg/mL

Question: What about the MIC (C. parapsilosis; 48 h, standards) of the same compound?
Answer: 0.5 µg/mL

Question: What about the MIC (L. corymbifera; [12]) of the same compound?
Answer: 0.5 µg/mL

Question: What about the MIC (C. krusei; 48 h, standards) of the same compound?
Answer: 1 µg/mL

Question: Which MIC (S. epidermidis; 48 h, standards, read-out: MIC Staphylococcus epidermidis) does the source give for CNC(C)C1CCC(N)C(OC2C(N)CC(N)C(OC3OCC(C)(O)C(NC)C3O)C2O)O1 (centres unmarked) [gentamicin] here?
Answer: > 8 µg/mL

Question: And the MIC (K. pneumoniae; 48 h, standards, read-out: MIC Klebsiella pneumonia)?
Answer: > 8 µg/mL

Question: What about the MIC (S. aureus; 48 h, standards, read-out: MIC Staphylococcus aureus) of the same compound?
Answer: 1 µg/mL

Question: What about the MIC (E. faecalis; 48 h, standards, read-out: MIC Enterococcus faecalis) of the same compound?
Answer: 8 µg/mL

Question: And the MIC (S. marcescens; 48 h, standards, read-out: MIC Serratia marcescens)?
Answer: 2 µg/mL

Question: And the MIC (P. aeruginosa; 48 h, standards, read-out: MIC Pseudomonas aeruginosa)?
Answer: 0.5 µg/mL

Question: And the MIC (E. coli; 48 h, standards, read-out: MIC Escherichia coli)?
Answer: 1 to 2 µg/mL

Question: What about the MIC (MRSA; 48 h, read-out: MIC Staphylococcus aureus methicillin resistant) of the same compound?
Answer: 16 to 32 µg/mL
